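1) Cells in 96-well plates. 2) Compound, 48 h, 5 concentrations. 3) Linear interpolation between surrounding doses. 4) Unreached endpoint = highest concentration. GI50: concentration for 50% inhibition of growth.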 Active and inactive are the calls of the source. No stated cut-off is given here; in the data, active = GI50 up to about 1.1 µM and inactive = higher.
Key:
Test in all cases: NCI-60 cell line screen, 48 h
PC-3 = system: PC-3
HOP-62 = system: HOP-62
M14 = system: M14
LOX IMVI = system: LOX IMVI
SN12C = system: SN12C
MOLT-4 = system: MOLT-4
A498 = system: A498
TK-10 = system: TK-10
CCRF-CEM = system: CCRF-CEM
U-251 = system: U-251
SNB-19 = system: SNB-19
NCI-H460 = system: NCI-H460
DU-145 = system: DU-145
OVCAR-3 = system: OVCAR-3
SK-MEL-5 = system: SK-MEL-5
Malme-3M = system: Malme-3M
HCT-116 = system: HCT-116
UACC-257 = system: UACC-257
OVCAR-8 = system: OVCAR-8
NCI-H226 = system: NCI-H226

Measured: GI50

Clc1c2nc3ccccc3c-2[nH]c2ccccc12
inactive: PC-3 17.5 µM | HOP-62 47.1 µM | M14 36.2 µM | LOX IMVI 11.7 µM | SN12C 32.7 µM | MOLT-4 2.9 µM | A498 43 µM | TK-10 98.4 µM | CCRF-CEM 19.2 µM | U-251 50.4 µM | SNB-19 > 100 µM | NCI-H460 27.2 µM | DU-145 22 µM | OVCAR-3 69.7 µM | SK-MEL-5 3.95 µM | Malme-3M 30.7 µM | HCT-116 8.55 µM | UACC-257 50.2 µM | OVCAR-8 29 µM

CCOP(=O)(OCC)c1ccc(=O)[nH]c1-c1cccs1
inactive: PC-3 > 100 µM | HOP-62 > 100 µM | M14 > 100 µM | SN12C > 100 µM | MOLT-4 > 100 µM | A498 > 100 µM | TK-10 > 100 µM | U-251 > 100 µM | SNB-19 > 100 µM | NCI-H226 > 100 µM | NCI-H460 > 100 µM | DU-145 > 100 µM | OVCAR-3 > 100 µM | SK-MEL-5 > 100 µM | Malme-3M > 100 µM | HCT-116 > 100 µM | UACC-257 > 100 µM | OVCAR-8 > 100 µM

CC(=O)Oc1ccc2cc(Oc3ccccc3)c(=O)oc2c1
inactive: PC-3 > 100 µM | HOP-62 89.1 µM | M14 > 100 µM | LOX IMVI 58.2 µM | SN12C > 100 µM | A498 67 µM | TK-10 64.6 µM | U-251 69.7 µM | SNB-19 93.5 µM | NCI-H226 > 100 µM | NCI-H460 90.8 µM | DU-145 > 100 µM | OVCAR-3 46 µM | SK-MEL-5 50.4 µM | Malme-3M > 100 µM | HCT-116 > 100 µM | UACC-257 > 100 µM | OVCAR-8 80.9 µM

COc1cccc(/N=N/C(=N\NC(=O)c2ccc(C)cc2)c2ccc(N(CCC#N)CCC#N)cc2C)c1
inactive: PC-3 64.6 µM | HOP-62 72.8 µM | M14 > 100 µM | LOX IMVI > 100 µM | SN12C > 100 µM | MOLT-4 > 100 µM | A498 44.3 µM | TK-10 > 100 µM | U-251 > 100 µM | SNB-19 > 100 µM | NCI-H226 > 100 µM | NCI-H460 > 100 µM | DU-145 > 100 µM | OVCAR-3 37.6 µM | SK-MEL-5 > 100 µM | Malme-3M > 100 µM | HCT-116 68.1 µM | UACC-257 42.8 µM | OVCAR-8 35.1 µM
